Reference: ChEMBL document CHEMBL1158395, “Discovery of novel acetanilide derivatives as potent and selective beta3-adrenergic receptor agonists” (Eur J Med Chem, 2009)

Key:
[1] = biological target: Beta-1 adrenergic receptor (Homo sapiens, UniProt P08588)
Description: Agonist activity at human cloned adrenergic beta-1 receptor expressed in CHO cells assessed as increase in cAMP production after 2 days by radioimmunoassay

[2] = biological target: Beta-3 adrenergic receptor (Homo sapiens, UniProt P13945); test: Agonist activity at human cloned adrenergic beta3 receptor expressed in CHO cells assessed as increase in cAMP production after 2 days by radioimmunoassay; type: functional, cell-based
[3] = biological target: Beta-2 adrenergic receptor (Homo sapiens, UniProt P07550)
Description: Agonist activity at human cloned adrenergic beta2 receptor expressed in CHO cells assessed as increase in cAMP production after 2 days by radioimmunoassay

Mus musculus = test: Hypoglycemic activity in diabetic kk mouse assessed as reduction in plasma glucose levels at 30 mg/kg, po administered for 4 days measured after 15 to 18 hrs by glucose oxidase method; type: functional; design: scale not given: the % may be the effect or the level left

Beta-2 adrenergic receptor, sequence (P07550 whole entry): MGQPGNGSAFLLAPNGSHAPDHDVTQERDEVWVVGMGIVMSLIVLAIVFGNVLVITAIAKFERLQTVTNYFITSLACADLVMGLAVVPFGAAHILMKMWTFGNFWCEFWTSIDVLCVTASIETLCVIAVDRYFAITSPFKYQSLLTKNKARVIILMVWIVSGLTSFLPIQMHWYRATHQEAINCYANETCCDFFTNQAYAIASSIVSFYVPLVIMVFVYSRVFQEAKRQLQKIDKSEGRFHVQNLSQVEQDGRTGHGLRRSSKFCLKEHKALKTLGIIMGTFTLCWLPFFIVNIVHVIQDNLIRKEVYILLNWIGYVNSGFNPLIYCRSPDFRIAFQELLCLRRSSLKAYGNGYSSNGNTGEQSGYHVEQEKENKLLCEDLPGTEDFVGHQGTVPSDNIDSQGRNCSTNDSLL
Beta-1 adrenergic receptor, sequence (P08588 whole entry): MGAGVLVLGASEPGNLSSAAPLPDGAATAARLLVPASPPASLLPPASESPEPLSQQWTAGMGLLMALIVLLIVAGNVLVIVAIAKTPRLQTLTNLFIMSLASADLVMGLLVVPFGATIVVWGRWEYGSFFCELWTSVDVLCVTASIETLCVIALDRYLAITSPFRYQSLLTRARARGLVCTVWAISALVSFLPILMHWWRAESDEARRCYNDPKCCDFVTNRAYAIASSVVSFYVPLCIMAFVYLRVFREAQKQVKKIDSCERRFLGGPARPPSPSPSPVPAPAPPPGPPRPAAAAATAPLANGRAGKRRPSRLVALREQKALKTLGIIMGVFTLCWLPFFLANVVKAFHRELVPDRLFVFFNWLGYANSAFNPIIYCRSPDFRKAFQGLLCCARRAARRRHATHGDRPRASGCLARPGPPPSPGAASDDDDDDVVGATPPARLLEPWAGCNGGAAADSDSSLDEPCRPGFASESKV
Beta-3 adrenergic receptor, sequence (P13945 whole entry): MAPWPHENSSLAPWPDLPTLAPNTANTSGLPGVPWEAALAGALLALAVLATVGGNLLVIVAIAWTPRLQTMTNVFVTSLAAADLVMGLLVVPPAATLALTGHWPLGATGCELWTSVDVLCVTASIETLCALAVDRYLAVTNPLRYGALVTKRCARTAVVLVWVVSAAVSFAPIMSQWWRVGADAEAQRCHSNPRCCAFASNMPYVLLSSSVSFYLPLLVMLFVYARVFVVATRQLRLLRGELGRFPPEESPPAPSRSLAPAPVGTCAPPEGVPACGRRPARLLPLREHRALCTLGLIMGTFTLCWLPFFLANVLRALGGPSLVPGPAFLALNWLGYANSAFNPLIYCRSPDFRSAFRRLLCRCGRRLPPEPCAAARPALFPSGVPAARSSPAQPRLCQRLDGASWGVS

Row | Structure (SMILES) | EC50 [1] | EC50 [2] | EC50 [3] | Activity (Mus musculus)
1 | O=S(=O)(Nc1ccc(CCNC[C@H](O)COc2ccc(O)cc2)cc1)c1ccccc1 | 1600 nM | 78 nM | > 100000 nM | 
2 | O=C(Cc1ccccn1)Nc1ccc(CCNC[C@H](O)COc2ccc(O)cc2)cc1 | 2700 nM | 290 nM | > 100000 nM | 32%
3 | O=C(Cc1cccs1)Nc1ccc(CCNC[C@H](O)COc2ccc(O)cc2)cc1 | 550 nM | 500 nM | > 100000 nM | 
4 | NC(C(=O)Nc1ccc(CCNC[C@H](O)COc2ccc(O)cc2)cc1)c1ccccc1 (some centres not stated) | 660 nM | 960 nM | > 100000 nM | 
5 | O=C(Cc1ccccc1)Nc1ccc(CCNC[C@H](O)COc2ccc(O)cc2)cc1 | 760 nM | 1700 nM | > 100000 nM | 
6 | COc1ccc(CC(=O)Nc2ccc(CCNC[C@H](O)COc3ccc(O)cc3)cc2)cc1 | 280 nM | 1700 nM | > 100000 nM | 
7 | O=C(Nc1ccc(CCNC[C@H](O)COc2ccc(O)cc2)cc1)C(c1ccccc1)c1ccccc1 | 180 nM | 120 nM | > 100000 nM | 
8 | O=C(Nc1ccc(CCNC[C@H](O)COc2ccc(O)cc2)cc1)C(O)c1ccccc1 (some centres not stated) | 590 nM | 960 nM | > 100000 nM | 
9 | O=C(Cc1ccsc1)Nc1ccc(CCNC[C@H](O)COc2ccc(O)cc2)cc1 | 490 nM | 550 nM | > 100000 nM | 
10 | O=C(Cc1ccc2ccccc2n1)Nc1ccc(CCNC[C@H](O)COc2ccc(O)cc2)cc1 | 1700 nM | 650 nM | > 100000 nM | 
11 | O=C(CC1C=Nc2ccccc21)Nc1ccc(CCNC[C@H](O)COc2ccc(O)cc2)cc1 (some centres not stated) | 550 nM | 490 nM | > 100000 nM | 
12 | O=C(Cc1cnccn1)Nc1ccc(CCNC[C@H](O)COc2ccc(O)cc2)cc1 | 3100 nM | 83 nM | > 100000 nM | 13%
13 | COc1ccccc1CC(=O)Nc1ccc(CCNC[C@H](O)COc2ccc(O)cc2)cc1 | 960 nM | 360 nM | > 100000 nM | 
14 | COc1cccc(CC(=O)Nc2ccc(CCNC[C@H](O)COc3ccc(O)cc3)cc2)c1 | 710 nM | 560 nM | > 100000 nM | 
15 | O=C(Cc1ccc2ccccc2c1)Nc1ccc(CCNC[C@H](O)COc2ccc(O)cc2)cc1 | 150 nM | 240 nM | > 100000 nM | 
16 | O=C(Cc1cccc(Cl)c1)Nc1ccc(CCNC[C@H](O)COc2ccc(O)cc2)cc1 | 83 nM | 890 nM | > 100000 nM | 
17 | O=C(Cc1ccncc1)Nc1ccc(CCNC[C@H](O)COc2ccc(O)cc2)cc1 | 260 nM | 520 nM | > 100000 nM | 
18 | O=C(Cc1cccnc1)Nc1ccc(CCNC[C@H](O)COc2ccc(O)cc2)cc1 | 910 nM | 1500 nM | > 100000 nM | 
19 | O=C(Cc1cc2ccccc2cn1)Nc1ccc(CCNC[C@H](O)COc2ccc(O)cc2)cc1 | 350 nM | 140 nM | > 100000 nM | 
20 | O=C(Cc1ncccn1)Nc1ccc(CCNC[C@H](O)COc2ccc(O)cc2)cc1 | > 100000 nM | 110 nM | > 100000 nM | 20%
21 | O=C(Cc1ccc(Cl)cc1)Nc1ccc(CCNC[C@H](O)COc2ccc(O)cc2)cc1 | 190 nM | 1200 nM | > 100000 nM | 
22 | O=C(Cc1ccccc1Cl)Nc1ccc(CCNC[C@H](O)COc2ccc(O)cc2)cc1 | 720 nM | 740 nM | > 100000 nM | 
23 | O=C(Cc1cccc2ccccc12)Nc1ccc(CCNC[C@H](O)COc2ccc(O)cc2)cc1 | 600 nM | 470 nM | > 100000 nM | 
